In patent publication US20120053211A1, “TREATMENT OF PANCREATIC CANCER” (ARDEA BIOSCIENCES, INC., priority 2009, published 2012):
Values joined by “and” are separate entries in the source; they are usually repeats but may differ in a detail not shown here. Equal values may be shown once.

Test system: Bx-PC3-e242 Xenograft
Assay: Bx-PC3-e242 Xenograft Study
Type: in vivo, female (nu/nu) mice
Design: key to Mean BW Nadir: — indicates no decrease in mean body weight was observed
Settings: for % TGI: D15, compared to Group 1; for % TGD: [(T − C)/C] × 100; for MTV (n) D54: day of TGD analysis, excludes animals reaching endpoint; for MTV (n) D15: day of TGI analysis, includes animals at endpoint; for T − C: difference of median TTE versus control group (Group 1); for Mean TTE / Median TTE: endpoint 1500 mm^3; for Individual TTE values: individual animals 1-9, endpoint 1500 mm^3, study duration 54 days; for Mean BW Nadir: lowest group mean body weight as % change from Day 1; for No. of NTR: non-treatment-related death; for No. of PR: partial regression, 9 animals
Procedure: In vivo activity of compound B: Bx-PC3-e242 Xenograft Study Bx-PC3-e242 cells were injected into 11-week-old female (nu/nu) mice. Tumors were allowed to reach 115.5-116.7 mm^3 (group mean tumor range); 63-196 mm^3 (Individual Tumor Range) in size (23 days) and mice were randomized into 6 groups of 9 animals (body weight range 18.0-25.2 g). Mice were treated by according to the chart below:
Tumors were measured with a caliper and tumor volumes calculated using the following formula:
where w=width and l=length in mm of a tumor. Tumor weight is estimated with the assumption that 1 mg is equivalent to 1 mm^3 of tumor volume.
Each animal was euthanized when the tumor reached endpoint size or at the end of the study, whichever comes first. The time to endpoint (TTE) for each mouse is calculated according to the following equation
The study endpoint was 1500 mm^3, with a study duration of 54 days.
Treatment may cause partial regression (PR) or complete regression (CR) of the tumor in an animal. In a PR response, the tumor volume is 50% or less of its Day 1 volume for three consecutive measurements during the course of the study.
Treatment outcome is evaluated by tumor growth delay (TGD), defined as the increase in the median time to endpoint (TTE) in a treatment group compared to the control group:
Response to treatment was also evaluated for tumor growth inhibition (TGI), defined as the difference between the median tumor volumes (MTVs) of treated and control mice.
Animals were weighed daily for the first five days of the study and then twice weekly. The mice are observed frequently for overt signs of any adverse, treatment-related side effects, and clinical signs of toxicity were recorded when observed.

[1] = Group 3: Cmpd B 25 mg/kg po qd × 14
[2] = Group 4: Cmpd B 6.25 mg/kg po bid × 14 first day 1 dose
[3] = Group 6: Cmpd B 12.5 mg/kg po, then 6.25 mg/kg po bid × 11 first day 1 dose (start on day 4)

Structure (SMILES): Cc1c(Nc2ccc(I)cc2F)c(NS(=O)(=O)C2CC2)cn(C)c1=O [Compound B, N-(4-(2-fluoro-4-iodophenylamino)-1,5-dimethyl-6-oxo-1,6-dihydropyridin-3-yl)cyclopropanesulfonamide]
- Weekly Median Tumor Volume (number of animals in parentheses) (D1, Group 3: Cmpd B 25 mg/kg po qd × 14): 108 (9) mm^3
- Weekly Median Tumor Volume (number of animals in parentheses) (D1, Group 4: Cmpd B 6.25 mg/kg po bid × 14 first day 1 dose): 108 (9) mm^3
- Weekly Median Tumor Volume (number of animals in parentheses) (D1, Group 5: Cmpd B 9 mg/kg po): 108 (9) mm^3
- Weekly Median Tumor Volume (number of animals in parentheses) (D1, Group 6: Cmpd B 12.5 mg/kg po, then 6.25 mg/kg po bid × 11 first day 1 dose (start on day 4)): 75 (9) mm^3
- Weekly Median Tumor Volume (number of animals in parentheses) (D5, Group 3: Cmpd B 25 mg/kg po qd × 14): 75 (9) mm^3
- Weekly Median Tumor Volume (number of animals in parentheses) (D5, Group 4: Cmpd B 6.25 mg/kg po bid × 14 first day 1 dose): 75 (9) mm^3
- Weekly Median Tumor Volume (number of animals in parentheses) (D5, Group 5: Cmpd B 9 mg/kg po): 63 (9) mm^3
- Weekly Median Tumor Volume (number of animals in parentheses) (D5, Group 6: Cmpd B 12.5 mg/kg po, then 6.25 mg/kg po bid × 11 first day 1 dose (start on day 4)): 75 (9) mm^3
- Weekly Median Tumor Volume (number of animals in parentheses) (D10, Group 3: Cmpd B 25 mg/kg po qd × 14): 196 (9) mm^3
- Weekly Median Tumor Volume (number of animals in parentheses) (D10, Group 4: Cmpd B 6.25 mg/kg po bid × 14 first day 1 dose): 196 (9) mm^3
- Weekly Median Tumor Volume (number of animals in parentheses) (D10, Group 5: Cmpd B 9 mg/kg po): 172 (9) mm^3
- Weekly Median Tumor Volume (number of animals in parentheses) (D10, Group 6: Cmpd B 12.5 mg/kg po, then 6.25 mg/kg po bid × 11 first day 1 dose (start on day 4)): 259 (9) mm^3
- % TGI [1]: 82%
- % TGI [2]: 89%
- % TGI (Group 5: Cmpd B 9 mg/kg po): 89%
- % TGI [3]: 84%
- Weekly Median Tumor Volume (number of animals in parentheses) (D15, Group 3: Cmpd B 25 mg/kg po qd × 14): 196 (9) mm^3
- Weekly Median Tumor Volume (number of animals in parentheses) (D15, Group 4: Cmpd B 6.25 mg/kg po bid × 14 first day 1 dose): 126 (9) mm^3
- Weekly Median Tumor Volume (number of animals in parentheses) (D15, Group 5: Cmpd B 9 mg/kg po): 126 (9) mm^3
- Weekly Median Tumor Volume (number of animals in parentheses) (D15, Group 6: Cmpd B 12.5 mg/kg po, then 6.25 mg/kg po bid × 11 first day 1 dose (start on day 4)): 172 (9) mm^3
- Weekly Median Tumor Volume (number of animals in parentheses) (D22, Group 3: Cmpd B 25 mg/kg po qd × 14): 446 (9) mm^3
- Weekly Median Tumor Volume (number of animals in parentheses) (D22, Group 4: Cmpd B 6.25 mg/kg po bid × 14 first day 1 dose): 288 (9) mm^3
- Weekly Median Tumor Volume (number of animals in parentheses) (D22, Group 5: Cmpd B 9 mg/kg po): 288 (9) mm^3
- Weekly Median Tumor Volume (number of animals in parentheses) (D22, Group 6: Cmpd B 12.5 mg/kg po, then 6.25 mg/kg po bid × 11 first day 1 dose (start on day 4)): 550 (9) mm^3
- Weekly Median Tumor Volume (number of animals in parentheses) (D29, Group 3: Cmpd B 25 mg/kg po qd × 14): 864 (5) mm^3
- Weekly Median Tumor Volume (number of animals in parentheses) (D29, Group 4: Cmpd B 6.25 mg/kg po bid × 14 first day 1 dose): 509 (8) mm^3
- Weekly Median Tumor Volume (number of animals in parentheses) (D29, Group 5: Cmpd B 9 mg/kg po): 566 (8) mm^3
- Weekly Median Tumor Volume (number of animals in parentheses) (D29, Group 6: Cmpd B 12.5 mg/kg po, then 6.25 mg/kg po bid × 11 first day 1 dose (start on day 4)): 1008 (9) mm^3
- Weekly Median Tumor Volume (number of animals in parentheses) (D36, Group 3: Cmpd B 25 mg/kg po qd × 14): 867 (4) mm^3
- Weekly Median Tumor Volume (number of animals in parentheses) (D36, Group 4: Cmpd B 6.25 mg/kg po bid × 14 first day 1 dose): 600 (6) mm^3
- Weekly Median Tumor Volume (number of animals in parentheses) (D36, Group 5: Cmpd B 9 mg/kg po): 600 (5) mm^3
- Weekly Median Tumor Volume (number of animals in parentheses) (D36, Group 6: Cmpd B 12.5 mg/kg po, then 6.25 mg/kg po bid × 11 first day 1 dose (start on day 4)): 900 (2) mm^3
- Weekly Median Tumor Volume (number of animals in parentheses) (D43, Group 3: Cmpd B 25 mg/kg po qd × 14): 1015 (2) mm^3
- Weekly Median Tumor Volume (number of animals in parentheses) (D43, Group 4: Cmpd B 6.25 mg/kg po bid × 14 first day 1 dose): 1268 (3) mm^3
- Weekly Median Tumor Volume (number of animals in parentheses) (D43, Group 5: Cmpd B 9 mg/kg po): 1008 (1) mm^3
- Weekly Median Tumor Volume (number of animals in parentheses) (D43, Group 6: Cmpd B 12.5 mg/kg po, then 6.25 mg/kg po bid × 11 first day 1 dose (start on day 4)): 1470 (1) mm^3
- Weekly Median Tumor Volume (number of animals in parentheses) (D50, Group 3: Cmpd B 25 mg/kg po qd × 14): 1327 (2) mm^3
- Weekly Median Tumor Volume (number of animals in parentheses) (D50, Group 4: Cmpd B 6.25 mg/kg po bid × 14 first day 1 dose): 976 (2) mm^3
- Weekly Median Tumor Volume (number of animals in parentheses) (D50, Group 5: Cmpd B 9 mg/kg po): 1470 (1) mm^3
- % TGD [1]: 62%
- % TGD [2]: 91%
- % TGD (Group 5: Cmpd B 9 mg/kg po): 94%
- % TGD [3]: 69%
- MTV (n) D54 [1]: 1470 (1) mm^3
- MTV (n) D54 [2]: 486 (1) mm^3
- MTV (n) D15 [1]: 196 (9) mm^3
- MTV (n) D15 [2]: 126 (9) mm^3
- MTV (n) D15 (Group 5: Cmpd B 9 mg/kg po): 126 (9) mm^3
- MTV (n) D15 [3]: 172 (9) mm^3
- T − C [1]: 12.1 days
- T − C [2]: 17.8 days
- T − C (Group 5: Cmpd B 9 mg/kg po): 18.3 days
- T − C [3]: 13.4 days
- Mean TTE [1]: 35.4 days
- Median TTE [1]: 31.6 days
- Mean TTE [2]: 40.7 days
- Median TTE [2]: 37.3 days
- Mean TTE (Group 5: Cmpd B 9 mg/kg po): 37.8 days
- Median TTE (Group 5: Cmpd B 9 mg/kg po): 37.8 days
- Mean TTE [3]: 34.9 days
- Median TTE [3]: 32.9 days
- Individual TTE values (* = non-treatment-related death, Group 4: Cmpd B 6.25 mg/kg po bid × 14 first day 1 dose): 54.0 days and 51.4 days and 50.0 days and 35.1 days and 36.9 days and *40.0 days and 29.0 days and 37.7 days and 31.5 days
- Individual TTE values [1]: 23.4 days and 28.3 days and 54.0 days and 50.1 days and 26.5 days and 31.6 days and 38.2 days and 40.2 days and 26.8 days
- Individual TTE values (Group 5: Cmpd B 9 mg/kg po): 31.8 days and 42.8 days (2×) and 33.8 days and 41.7 days and 50.3 days and 30.5 days and 28.2 days and 37.8 days
- Individual TTE values [3]: 32.9 days and 45.6 days and 35.7 days and 29.7 days and 33.3 days and 41.0 days and 31.1 days and 31.8 days and 32.8 days
- Mean BW Nadir [1]: —
- Mean BW Nadir [2]: —
- Mean BW Nadir (Group 5: Cmpd B 9 mg/kg po): —
- Mean BW Nadir [3]: —
- Mean TV(n) (n = 1, Group 5: Cmpd B 9 mg/kg po): 1913 mm^3
- Mean TV(n) (n = 2, Group 3: Cmpd B 25 mg/kg po qd × 14): 1635 mm^3
- Mean TV(n) (n = 2, Group 4: Cmpd B 6.25 mg/kg po bid × 14 first day 1 dose): 1076 mm^3
- No. of NTR [1]: 0
- No. of NTR [2]: 1
- No. of NTR (Group 5: Cmpd B 9 mg/kg po): 0
- No. of NTR [3]: 0
- No. of PR [1]: 0
- No. of PR [2]: 0
- No. of PR (Group 5: Cmpd B 9 mg/kg po): 0
- No. of PR [3]: 0
